Assay results: PMC5111045, “Modulation of NMDA channel gating by Ca^2+ and Cd^2+ binding to the external pore mouth” (Scientific Reports, 2016)
Several values for one entry are separate records, joined by “and”; a condition that tells them apart may be missing. Identical values can stand only once. Like-named read-outs stand apart in the source and are kept apart here.

Columns and labels:
[1] = target: T1, NMDA receptor channel (GluN1a variant/GluN2B), wild-type (Rattus norvegicus, UniProt P35439+Q00960); assay: Outside-out patch recordings of NMDA receptor currents, wild-type channel expressed in Xenopus oocytes; format: cell-based
T1 construct: expressed in transfected cells; host or cells: Xenopus laevis oocytes (cRNA injection)
Method: (§1) The rat GluN1a variant and GluN2B cDNA clones were used in this study. Point mutations were made by site-directed mutagenesis using the QuickChange Site-Directed Mutagenesis kit (Stratagene, La Jolla, CA). Mutations were verified by DNA sequencing to ensure the lack of any inadvertent mutations. The capped cRNA transcripts were then synthesized using T7 and T3 mMESSAGE mMACHINE transcription kits (Ambion, Austin, TX), and were stored at −80 °C.
(§2) This study was carried out in accordance with the ethical information guidelines of the National Taiwan University College of Medicine. The protocols for the care and use of animals were approved by the National Taiwan University College of Medicine and College of Public Health Institutional Animal Care and Use Committee (IACUC). All efforts were made to minimize animal suffering. Adult female Xenopus laevis were anesthetized, and ovarian lobes containing stage V or VI oocytes were removed. Oocytes were dispersed after manual disruption of the egg sac, and were digested for 1 hr with collagenase type I (2 mg/ml) to remove the follicular layer. A mixture of GluN1a variant and GluN2B cRNAs with a ratio of 1:5 (i.e., 0.1–4 ng of GluN1a variant and 0.5–20 ng of GluN2B) (Kashiwagi et al. 2002) was injected into oocytes. Oocytes were maintained in the culture medium (96 mM NaCl, 2 mM KCl, 1.8 mM MgCl2, 1.8 mM CaCl2, 5 mM HEPES, and 50 ug/ml gentamycin, pH 7.6) at 18 °C for 2–3 days before electrophysiological recordings.
Oocytes were placed in a recording chamber containing Mg^2+-free bath solution (150 mM NaMeSO3, 5 mM NaCl, and 10 mM HEPES; pH 7.4). Outside-out patch recordings were obtained using fire-polished pipettes pulled from borosilicate capillaries (outer diameter, 1.55–1.60 mm; Hilgenberg, Malsfeld, Germany). Recording pipettes ([…]) were filled with the pipette solution containing 150 mM NaMeSO3, 5 mM NaCl, 5 mM EGTA, and 10 mM HEPES (pH 7.4). A seal was formed, and the outside-out patch configuration was obtained in Tyrode’s solution (150 mM NaCl, 4 mM KCl, 2 mM MgCl2, 2 mM CaCl2, and 10 mM HEPES; pH 7.4). The patch was then lifted from the bottom of the chamber and moved in front of a set of “theta glass” tubes (2.0 mm outer diameter pulled to an opening of ~300 μm in width; Warner Instrument, Hamden, CT) emitting external recording solutions. The standard external solution was Mg^2+-free Ca^2+-free Tyrode’s solution (pH 7.4), but 2 mM Ca^2+ or 0.1–100 μM Cd^2+ may be added to the external recording solution as specified in each different experimental condition. The glass-tube holder was connected to a stepper motor (SF-77B perfusion system, Warner Instrument) to achieve fast switch for rapid solution change. Drugs and salts were purchased from Sigma (St. Louis, MO). NMDA, glycine, and Cd^2+ were dissolved in water to make 100, 100, and 10 mM stock solutions, respectively. The stock solutions were then diluted into the external recording solution to make 1 to 100 μM Cd^2+, 1 to 300 μM NMDA, and 30 μM glycine. The NMDA currents were recorded at a membrane potential of −70 mV and at room temperature (~25 °C) with an […] amplifier, filtered at 1 kHz with a four-pole Bessel filter, digitized at 500 μs intervals, and stored using a Digidata-1322A analog/digital interface along with the pCLAMP software (all from MDS Analytical Technologies, Sunnyvale, CA). To plot the activation and the desensitization curves, a patch was moved from the NMDA- and glycine-free external solution to the external solution containing 0 to 100 μM NMDA and 30 μM glycine for 3 s (the desensitization prepulse), and then moved to another external solution containing 300 μM NMDA and 30 μM glycine for 3 s (the test pulse) before being moved back to the NMDA-free external solution again. The amplitude of the sustained currents in the desensitization prepulse in each different concentration of NMDA is normalized to the maximal current and plotted against the NMDA concentration to obtain the activation curve. […]

[2] = target: E661A mutant NMDA channel; assay: Outside-out patch recordings, E661A mutant NMDA channel; format: cell-based, rat; details: Hill coefficient of 1 assumed
Method: as §1
(§3) This study was carried out in accordance with the ethical information guidelines of the National Taiwan University College of Medicine. The protocols for the care and use of animals were approved by the National Taiwan University College of Medicine and College of Public Health Institutional Animal Care and Use Committee (IACUC). All efforts were made to minimize animal suffering. […]
(§4) Oocytes were placed in a recording chamber containing Mg^2+-free bath solution (150 mM NaMeSO3, 5 mM NaCl, and 10 mM HEPES; pH 7.4). […] The NMDA currents were recorded at a membrane potential of −70 mV and at room temperature (~25 °C) with an […] amplifier, filtered at 1 kHz with a four-pole Bessel filter, digitized at 500 μs intervals, and stored using a Digidata-1322A analog/digital interface along with the pCLAMP software (all from MDS Analytical Technologies, Sunnyvale, CA). […]

[3] = target: E662A mutant NMDA channel; assay: Outside-out patch recordings, E662A mutant NMDA channel; format: cell-based, rat; details: Hill coefficient of 1 assumed
Method: as §1, §3, §4

[4] = target: T2, E661AE662A double mutant NMDA channel (Rattus norvegicus, UniProt P35439+Q00960, E661A/E662A); assay: Outside-out patch recordings, E661AE662A double mutant NMDA channel; format: cell-based; details: for coupling coefficient ((KdWT × KdE661AE662A)/(KdE661A × KdE662A)), double mutant cycle analysis: mutations E661A and E662A; for Kd: E661AE662A, Hill coefficient of 1 assumed
T2 construct: expressed in transfected cells; host or cells: Xenopus laevis oocytes (cRNA injection)
Method: as §1, §2
Oocytes were placed in a recording chamber containing Mg^2+-free bath solution (150 mM NaMeSO3, 5 mM NaCl, and 10 mM HEPES; pH 7.4). Outside-out patch recordings were obtained using fire-polished pipettes pulled from borosilicate capillaries (outer diameter, 1.55–1.60 mm; Hilgenberg, Malsfeld, Germany). Recording pipettes ([…]) were filled with the pipette solution containing 150 mM NaMeSO3, 5 mM NaCl, 5 mM EGTA, and 10 mM HEPES (pH 7.4). A seal was formed, and the outside-out patch configuration was obtained in Tyrode’s solution (150 mM NaCl, 4 mM KCl, 2 mM MgCl2, 2 mM CaCl2, and 10 mM HEPES; pH 7.4). The patch was then lifted from the bottom of the chamber and moved in front of a set of “theta glass” tubes (2.0 mm outer diameter pulled to an opening of ~300 μm in width; Warner Instrument, Hamden, CT) emitting external recording solutions. The standard external solution was Mg^2+-free Ca^2+-free Tyrode’s solution (pH 7.4), but 2 mM Ca^2+ or 0.1–100 μM Cd^2+ may be added to the external recording solution as specified in each different experimental condition. The glass-tube holder was connected to a stepper motor (SF-77B perfusion system, Warner Instrument) to achieve fast switch for rapid solution change. Drugs and salts were purchased from Sigma (St. Louis, MO). NMDA, glycine, and Cd^2+ were dissolved in water to make 100, 100, and 10 mM stock solutions, respectively. The stock solutions were then diluted into the external recording solution to make 1 to 100 μM Cd^2+, 1 to 300 μM NMDA, and 30 μM glycine. The NMDA currents were recorded at a membrane potential of −70 mV and at room temperature (~25 °C) with an […] amplifier, filtered at 1 kHz with a four-pole Bessel filter, digitized at 500 μs intervals, and stored using a Digidata-1322A analog/digital interface along with the pCLAMP software (all from MDS Analytical Technologies, Sunnyvale, CA). […]

[5] = target: T3, D658A mutant NMDA channel (Rattus norvegicus, UniProt P35439+Q00960, D658A); assay: Outside-out patch recordings, D658A mutant NMDA channel; format: cell-based; details: 30 μM Cd2+ between NMDA pulses; P = 0.034
T3 construct: expressed in transfected cells; host or cells: Xenopus laevis oocytes (cRNA injection)
Method: as §1, §3, §4

[6] = target: T4, D658AE661AE662A triple mutant NMDA channel (Rattus norvegicus, UniProt P35439+Q00960, D658A/E661A/E662A); assay: Outside-out patch recordings, D658AE661AE662A triple mutant NMDA channel; format: cell-based
T4 construct: expressed in transfected cells; host or cells: Xenopus laevis oocytes (cRNA injection)
Method: as §1, §3, §4

[7] = target: T5, T647A (GluN2B) mutant NMDA channel (Rattus norvegicus, UniProt P35439+Q00960, T647A); assay: Outside-out patch recordings, T647A (GluN2B) mutant NMDA channel; format: cell-based; details: 30 μM Cd2+
T5 construct: expressed in transfected cells; host or cells: Xenopus laevis oocytes (cRNA injection)
Method: as §1, §2, §4

[8] = Fig. 5e inset, read-out: apparent dissociation constant, closed channel, derived from relative peak current in 30 μM Cd2+
[9] = Fig. 6e inset, read-out: apparent dissociation constant, activated channel, derived from relative sustained current in 30 μM Cd2+

T2 sequence (Q00960 27-1482, other chains not shown): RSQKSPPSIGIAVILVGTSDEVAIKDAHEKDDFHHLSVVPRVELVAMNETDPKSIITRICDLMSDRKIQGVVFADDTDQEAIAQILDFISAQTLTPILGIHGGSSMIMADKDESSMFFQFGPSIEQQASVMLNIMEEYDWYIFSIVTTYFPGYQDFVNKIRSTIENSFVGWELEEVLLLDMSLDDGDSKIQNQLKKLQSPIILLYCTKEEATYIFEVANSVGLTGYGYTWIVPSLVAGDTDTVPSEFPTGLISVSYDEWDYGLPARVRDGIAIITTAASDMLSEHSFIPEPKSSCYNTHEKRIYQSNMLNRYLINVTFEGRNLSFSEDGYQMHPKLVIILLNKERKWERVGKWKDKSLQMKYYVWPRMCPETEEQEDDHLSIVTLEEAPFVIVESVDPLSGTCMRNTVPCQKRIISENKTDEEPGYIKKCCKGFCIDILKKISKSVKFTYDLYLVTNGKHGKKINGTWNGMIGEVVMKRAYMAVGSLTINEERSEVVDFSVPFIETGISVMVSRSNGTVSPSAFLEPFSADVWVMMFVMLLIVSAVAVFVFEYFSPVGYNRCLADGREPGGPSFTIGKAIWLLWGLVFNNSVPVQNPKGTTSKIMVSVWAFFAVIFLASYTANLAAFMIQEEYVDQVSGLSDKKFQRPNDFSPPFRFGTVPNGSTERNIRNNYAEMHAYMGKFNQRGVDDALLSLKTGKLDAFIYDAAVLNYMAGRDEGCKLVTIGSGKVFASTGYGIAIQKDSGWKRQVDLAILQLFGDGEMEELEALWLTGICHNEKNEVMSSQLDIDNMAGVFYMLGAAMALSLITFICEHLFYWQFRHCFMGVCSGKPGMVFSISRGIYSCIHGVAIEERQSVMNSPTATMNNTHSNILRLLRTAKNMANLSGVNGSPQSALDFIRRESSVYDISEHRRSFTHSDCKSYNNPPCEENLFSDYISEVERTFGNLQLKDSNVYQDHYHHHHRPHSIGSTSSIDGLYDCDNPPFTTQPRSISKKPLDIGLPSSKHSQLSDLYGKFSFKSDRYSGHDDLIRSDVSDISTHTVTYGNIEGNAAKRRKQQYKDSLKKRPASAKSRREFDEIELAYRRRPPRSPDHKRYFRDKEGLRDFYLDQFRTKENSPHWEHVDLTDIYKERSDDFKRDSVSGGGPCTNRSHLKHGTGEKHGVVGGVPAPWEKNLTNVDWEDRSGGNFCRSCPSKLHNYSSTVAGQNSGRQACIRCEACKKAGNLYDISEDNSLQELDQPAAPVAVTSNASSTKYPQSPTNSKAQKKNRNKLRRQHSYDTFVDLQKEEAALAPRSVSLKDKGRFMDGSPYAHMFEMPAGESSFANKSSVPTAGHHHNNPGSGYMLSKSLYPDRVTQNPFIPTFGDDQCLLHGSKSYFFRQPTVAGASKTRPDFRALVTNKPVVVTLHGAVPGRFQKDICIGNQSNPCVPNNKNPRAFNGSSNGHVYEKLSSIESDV
T1 sequence (Q00960 27-1482, other chains not shown): as above
T5 sequence (Q00960 27-1482 T647A, other chains not shown): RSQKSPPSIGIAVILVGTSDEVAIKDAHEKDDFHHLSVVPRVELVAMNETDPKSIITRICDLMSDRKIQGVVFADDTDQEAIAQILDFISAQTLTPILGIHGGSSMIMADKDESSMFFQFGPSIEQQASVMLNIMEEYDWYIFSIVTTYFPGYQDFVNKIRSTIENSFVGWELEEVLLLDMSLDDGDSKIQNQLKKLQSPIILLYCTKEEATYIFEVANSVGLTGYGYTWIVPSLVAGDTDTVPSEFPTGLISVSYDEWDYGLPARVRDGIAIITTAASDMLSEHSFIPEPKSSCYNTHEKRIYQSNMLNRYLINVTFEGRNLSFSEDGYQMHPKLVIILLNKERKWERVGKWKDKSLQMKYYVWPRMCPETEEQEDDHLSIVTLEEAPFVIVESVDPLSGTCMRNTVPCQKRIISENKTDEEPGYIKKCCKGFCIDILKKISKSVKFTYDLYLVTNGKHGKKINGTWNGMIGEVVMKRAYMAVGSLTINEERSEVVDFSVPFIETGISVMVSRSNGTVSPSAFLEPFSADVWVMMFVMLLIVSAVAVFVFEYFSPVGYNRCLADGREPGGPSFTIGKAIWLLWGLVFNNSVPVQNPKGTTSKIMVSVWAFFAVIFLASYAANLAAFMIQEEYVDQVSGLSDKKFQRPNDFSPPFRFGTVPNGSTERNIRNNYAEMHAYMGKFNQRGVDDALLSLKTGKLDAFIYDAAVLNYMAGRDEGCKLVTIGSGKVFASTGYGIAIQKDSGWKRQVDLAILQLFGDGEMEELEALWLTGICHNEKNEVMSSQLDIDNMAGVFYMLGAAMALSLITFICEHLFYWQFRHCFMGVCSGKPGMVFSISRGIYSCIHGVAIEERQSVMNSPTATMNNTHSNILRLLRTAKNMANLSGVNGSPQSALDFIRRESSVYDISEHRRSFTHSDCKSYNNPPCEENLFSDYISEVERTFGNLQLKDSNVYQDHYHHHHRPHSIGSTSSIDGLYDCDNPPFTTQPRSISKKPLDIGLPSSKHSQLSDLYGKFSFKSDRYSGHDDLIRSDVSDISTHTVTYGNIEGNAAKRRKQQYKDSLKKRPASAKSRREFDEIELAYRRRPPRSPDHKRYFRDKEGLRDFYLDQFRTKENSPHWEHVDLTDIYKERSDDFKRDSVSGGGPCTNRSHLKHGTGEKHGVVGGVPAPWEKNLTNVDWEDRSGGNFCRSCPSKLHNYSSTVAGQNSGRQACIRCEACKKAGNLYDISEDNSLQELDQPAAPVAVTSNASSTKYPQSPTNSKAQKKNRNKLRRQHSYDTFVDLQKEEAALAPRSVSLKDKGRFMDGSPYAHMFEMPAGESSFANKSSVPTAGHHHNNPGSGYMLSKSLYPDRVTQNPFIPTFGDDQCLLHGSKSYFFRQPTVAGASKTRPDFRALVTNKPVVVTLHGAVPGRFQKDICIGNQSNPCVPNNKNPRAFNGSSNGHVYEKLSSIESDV

Compound: [Cd+2] [Cd^2+]
- shift of the activation curve ([1]; 3 μM Cd2+, n = 4): moderate leftward shift
- shift of the desensitization curve ([1]; 3 μM Cd2+, n = 4): moderate leftward shift
- effect on NMDAR currents relative to 2 mM Ca2+ ([1]; 30 μM Cd2+ vs 2 mM Ca2+ in the extracellular milieu): stronger effects than 2 mM Ca^2+
- Kd ([1]; activated (steady-state mixture of open and desensitized) channel, Cd2+ during the NMDA pulse, Fig. 3b, n = 7, read-out: apparent dissociation constant (Kd), Hill fit of relative sustained current): ~1.6 µM
- Kd ([1]; activated channel, sustained current, mean ± SEM, read-out: Kd from fits of each individual data set, Fig. 3b): 1.4 ± 0.16 µM
- Hill coefficient n, relative sustained current ([1]; activated channel, Fig. 3b): 1
- slope of unbinding rates against Cd2+ concentration ([1]; activated channel, essentially zero, n = 4): ~ 0.01 M^−1s^−1
- macroscopic on rate (slope of binding rates against Cd2+ concentration) ([1]; activated channel, fast application of Cd2+, n = 4): 430000 M⁻¹ s⁻¹
- intercept of binding rates against Cd2+ concentration ([1]; activated channel, linear regression, n = 4): 9.4 s⁻¹
- macroscopic off rate (intercept of unbinding rates) ([1]; activated channel, wash-off of Cd2+, n = 4): 6.8 s⁻¹
- Kd ([1]; closed (resting) channel, Cd2+ applied in the interpulse phase, Fig. 2b, n = 7, read-out: apparent dissociation constant (Kd), Hill fit of relative peak current): 6 µM and ~6 µM
- Kd ([1]; closed channel, activation speed, mean ± SEM, read-out: Kd from fits of each individual data set, Fig. 2d): 3.4 ± 0.66 µM
- Kd ([1]; closed channel, peak current, mean ± SEM, read-out: Kd from fits of each individual data set, Fig. 2b): 7.6 ± 1.2 µM
- Kd ([1]; closed channel, Cd2+ in the interpulse phase, Fig. 2d, n = 4, read-out: apparent dissociation constant (Kd), Hill fit of relative initial activation speed): 4.5 µM and ~4.5 µM
- Hill coefficient n, relative peak current ([1]; closed channel, Fig. 2b): 1
- Hill coefficient n, relative activation speed ([1]; closed channel, Fig. 2d): 1
- Kd ([1]; equal to KCd2+,o × m/r from model fits in 3 μM Cd2+, not a precise estimate, read-out: KCd2+,d (dissociation constant for Cd2+ binding to the desensitized NMDA channel)): 1.25 µM
- Kd ([1]; model fit (equations 2 and 4) to activation and desensitization data in 3 μM Cd2+, not a precise estimate, read-out: KCd2+,o (dissociation constant for Cd2+ binding to the open NMDA channel)): 2.5 µM
- r value, r = m × (KCd2+,o/KCd2+,d) ([1]; model fit to activation and desensitization data in 3 μM Cd2+, m set at 4): 8
- Kd ([1]; ratio between the macroscopic off rate and on rate, Fig. 4a inset, read-out: rough estimate of the dissociation constant of Cd2+ to the open state): ~16 µM
- Kd ([1]; wild-type, Hill coefficient of 1 assumed, Fig. 5e inset, read-out: apparent dissociation constant, closed channel, derived from relative peak current in 30 μM Cd2+): 19.6 µM
- Kd ([1]; wild-type, Hill coefficient of 1 assumed, Fig. 6e inset, read-out: apparent dissociation constant, activated channel, derived from relative sustained current in 30 μM Cd2+): 3.2 µM
- Kd [2, 8]: 40.7 µM
- Kd [2, 9]: 7.7 µM
- Kd [3, 8]: 37.3 µM
- Kd [3, 9]: 5.6 µM
- coupling coefficient ((KdWT × KdE661AE662A)/(KdE661A × KdE662A)), double mutant cycle analysis ([4]; Cd2+ binding to the activated NMDA channel): 1.03
- coupling coefficient ((KdWT × KdE661AE662A)/(KdE661A × KdE662A)), double mutant cycle analysis ([4]; Cd2+ binding to the closed NMDA channel): 0.90
- Kd [4, 8]: 70.2 µM
- Kd [4, 9]: 13.9 µM
- effect on peak current, closed channel, compared with WT [5]: less pronounced
- effect on peak current, closed channel, compared with WT ([6]; 30 μM Cd2+ between NMDA pulses, P = 0.0093): less pronounced
- effect on sustained current, activated channel, compared with WT ([6]; 30 μM Cd2+ during NMDA pulse, P = 0.00031): less pronounced
- relative hook current after wash-off of agonists and blocking cation, compared with WT channel ([7]; P = 0.00012): significantly larger hook current
- inhibitory effect on sustained current (relative current) compared with WT channel ([7]; n = 8 vs WT n = 6, P = 0.00037): significantly smaller effect
